# Data from patent US11208405B2, “Pyrrole derivatives as PLK1 inhibitors” (SENTINEL ONCOLOGY LIMITED, priority 2017, dated 2021).
# Where a name gives a salt, the structure may show the parent alone.
# Tests used:
# STK16 = target: T1, STK16 (Homo sapiens, UniProt O75716); assay: Kinase selectivity assay (DiscoverX KinomeScreen), STK16; type: binding; details: STK16, 5 μM; read-out: % Control
# T1 construct: purchased DiscoverX
# Experimental: (§1) The compound of Example 33 was tested for off-target activity against a panel of fifty five kinases bearing functional or structural similarity to PLK1 at a concentration of 5 μM using the DiscoverX KinomeScreen assay.
# DSTYK = target: T2, DSTYK (Homo sapiens, UniProt Q6XUX3); assay: Kinase selectivity assay (DiscoverX KinomeScreen), DSTYK; type: binding; details: read-out: % Control
# T2 construct: purchased DiscoverX
# Experimental: as §1
# phospho-histone H3 = assay: Western blotting of tumours 24 hours after a single dose; type: in vivo; details: mice with established tumours
# Experimental: In a separate experiment, eight mice with established tumours were treated with the compound of Example 33 and euthanised 24 hours after administration of a single dose.
# wild-type HeLa cell line = assay: Wild-type versus KRAS HeLa cell viability: wild-type KRAS transgene; type: cell-based; details: Homo sapiens; HeLa cells expressing wild-type KRAS, 72 hours; read-out: WT GI50
# Experimental: Assay to Measure the Effects of Compounds of the Invention on Wild-Type Versus KRAS HeLa Cell Viability
# Identifying synthetic lethal interactions between targeted small molecule therapies and characterised oncogenic mutations is a goal of modern oncology drug discovery efforts. To this end, PLK1-PBD inhibitors were tested on HeLa cells engineered to inducibly express wild-type or oncogenic KrasG12V transgenes using the FLP-in/T-Rex system (Invitrogen). Cells were plated, and then treated with or without Doxycycline to induce transgene expression, and then treated with serially-diluted PBD inhibitors. After 72 hours of incubation, cell viability was assessed using the Cell Titre Blue reagent (Promega) and a BMG Pherastar plate reader. The effect of PBD inhibition on cell viability with either wild-type or oncogenic G12V KRAS was assessed using the graphing/curve-fitting packages in GraphPad Prism.
# [1] = system: glioblastoma cell line 907271; assay: Glioblastoma cancer cell viability, cell line 907271; type: cell-based
# Experimental: (§2) Assay to Measure the Effects of Compounds of the Invention on Glioblastoma Cancer Cell Viability
# (§3) The compound of Example 33 was tested for inhibitory activity against the glioblastoma cell lines in Table 7 below.
# AAK1 = target: T3, AAK1 (Homo sapiens, UniProt Q2M2I8); assay: Kinase selectivity assay (DiscoverX KinomeScreen), AAK1; type: binding; details: AAK1, 5 μM; read-out: % Control
# T3 construct: purchased DiscoverX
# Experimental: as §1
# AURKB = target: T4, AURKB (Homo sapiens, UniProt Q96GD4); assay: Kinase selectivity assay (DiscoverX KinomeScreen), AURKB; type: binding; details: read-out: % Control
# T4 construct: purchased DiscoverX
# T4 sequence (Q96GD4 whole entry): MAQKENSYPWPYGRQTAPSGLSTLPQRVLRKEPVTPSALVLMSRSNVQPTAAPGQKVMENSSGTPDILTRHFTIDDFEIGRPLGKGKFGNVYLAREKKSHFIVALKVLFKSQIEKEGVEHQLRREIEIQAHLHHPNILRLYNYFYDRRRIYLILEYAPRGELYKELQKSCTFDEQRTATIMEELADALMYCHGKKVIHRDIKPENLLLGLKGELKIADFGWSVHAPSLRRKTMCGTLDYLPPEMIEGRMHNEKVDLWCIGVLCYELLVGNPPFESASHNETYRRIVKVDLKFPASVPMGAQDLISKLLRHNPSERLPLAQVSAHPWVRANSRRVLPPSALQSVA
# Experimental: as §1
# TTK = target: T5, TTK (Homo sapiens, UniProt P33981); assay: Kinase selectivity assay (DiscoverX KinomeScreen), TTK; type: binding; details: read-out: % Control
# T5 construct: purchased DiscoverX
# Experimental: as §1
# CAMKK2 = target: T6, CAMKK2 (Homo sapiens, UniProt Q96RR4); assay: Kinase selectivity assay (DiscoverX KinomeScreen), CAMKK2; type: binding; details: CAMKK2, 5 μM; read-out: % Control
# T6 construct: purchased DiscoverX
# T6 sequence (Q96RR4 whole entry): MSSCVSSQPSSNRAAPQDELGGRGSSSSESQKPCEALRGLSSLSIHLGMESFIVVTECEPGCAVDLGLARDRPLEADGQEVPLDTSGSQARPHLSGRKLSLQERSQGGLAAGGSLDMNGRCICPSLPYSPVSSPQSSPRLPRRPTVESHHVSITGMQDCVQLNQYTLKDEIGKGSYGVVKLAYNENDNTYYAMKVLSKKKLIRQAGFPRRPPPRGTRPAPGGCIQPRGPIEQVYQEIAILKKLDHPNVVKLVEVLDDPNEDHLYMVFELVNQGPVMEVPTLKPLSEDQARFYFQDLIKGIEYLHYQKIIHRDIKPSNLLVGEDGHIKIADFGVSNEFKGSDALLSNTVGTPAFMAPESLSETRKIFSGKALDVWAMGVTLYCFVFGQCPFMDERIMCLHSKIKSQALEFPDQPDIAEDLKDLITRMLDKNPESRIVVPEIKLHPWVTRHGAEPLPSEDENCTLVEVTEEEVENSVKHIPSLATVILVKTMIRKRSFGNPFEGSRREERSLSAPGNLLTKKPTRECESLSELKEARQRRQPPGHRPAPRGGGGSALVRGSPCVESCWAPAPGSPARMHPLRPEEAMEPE
# Experimental: as §1
# NEK11 = target: T7, NEK11 (Homo sapiens, UniProt Q8NG66); assay: Kinase selectivity assay (DiscoverX KinomeScreen), NEK11; type: binding; details: NEK11, 5 μM; read-out: % Control
# T7 construct: purchased DiscoverX
# Experimental: as §1
# STK35 = target: T8, STK35 (Homo sapiens, UniProt Q8TDR2); assay: Kinase selectivity assay (DiscoverX KinomeScreen), STK35; type: binding; details: STK35, 5 μM; read-out: % Control
# T8 construct: purchased DiscoverX
# Experimental: as §1
# [2] = system: glioblastoma cell line 906746; assay: Glioblastoma cancer cell viability, cell line 906746; type: cell-based
# Experimental: as §2, §3
# WNK2 = target: T9, WNK2 (Homo sapiens, UniProt Q9Y3S1); assay: Kinase selectivity assay (DiscoverX KinomeScreen), WNK2; type: binding; details: WNK2, 5 μM; read-out: % Control
# T9 construct: purchased DiscoverX
# Experimental: as §1
# WNK4 = target: T10, WNK4 (Homo sapiens, UniProt Q96J92); assay: Kinase selectivity assay (DiscoverX KinomeScreen), WNK4; type: binding; details: WNK4, 5 μM; read-out: % Control
# T10 construct: purchased DiscoverX
# Experimental: as §1
# ULK1 = target: T11, ULK1 (Homo sapiens, UniProt O75385); assay: Kinase selectivity assay (DiscoverX KinomeScreen), ULK1; type: binding; details: ULK1, 5 μM; read-out: % Control
# T11 construct: purchased DiscoverX
# Experimental: as §1
# IKBKB = target: T12, IKBKB (Homo sapiens, UniProt O14920); assay: Kinase selectivity assay (DiscoverX KinomeScreen), IKBKB; type: binding; details: read-out: % Control
# T12 construct: purchased DiscoverX
# T12 sequence (O14920 whole entry): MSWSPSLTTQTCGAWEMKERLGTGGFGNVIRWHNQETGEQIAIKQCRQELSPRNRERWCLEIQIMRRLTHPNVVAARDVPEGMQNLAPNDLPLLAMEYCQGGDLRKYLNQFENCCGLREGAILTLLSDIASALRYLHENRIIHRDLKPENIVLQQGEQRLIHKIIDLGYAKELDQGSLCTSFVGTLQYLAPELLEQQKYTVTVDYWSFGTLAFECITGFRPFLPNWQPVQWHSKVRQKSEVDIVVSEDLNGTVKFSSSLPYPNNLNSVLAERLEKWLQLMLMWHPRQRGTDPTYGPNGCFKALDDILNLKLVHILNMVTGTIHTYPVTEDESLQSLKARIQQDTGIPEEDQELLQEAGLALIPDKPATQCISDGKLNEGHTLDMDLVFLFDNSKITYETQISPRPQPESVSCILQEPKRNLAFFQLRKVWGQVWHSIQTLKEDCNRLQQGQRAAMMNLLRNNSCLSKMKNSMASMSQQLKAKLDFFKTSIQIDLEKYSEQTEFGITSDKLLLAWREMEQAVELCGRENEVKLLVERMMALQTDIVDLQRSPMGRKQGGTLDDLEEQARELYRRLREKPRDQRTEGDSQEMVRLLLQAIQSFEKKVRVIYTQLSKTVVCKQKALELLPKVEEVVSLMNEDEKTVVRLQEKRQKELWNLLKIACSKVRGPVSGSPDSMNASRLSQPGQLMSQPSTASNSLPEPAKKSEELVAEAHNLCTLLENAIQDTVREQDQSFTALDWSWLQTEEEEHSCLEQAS
# Experimental: as §1
# TLK2 = target: T13, TLK2 (Homo sapiens, UniProt Q86UE8); assay: Kinase selectivity assay (DiscoverX KinomeScreen), TLK2; type: binding; details: TLK2, 5 μM; read-out: % Control
# T13 construct: purchased DiscoverX
# Experimental: as §1
# WNK1 = target: T14, WNK1 (Homo sapiens, UniProt Q9H4A3); assay: Kinase selectivity assay (DiscoverX KinomeScreen), WNK1; type: binding; details: WNK1, 5 μM; read-out: % Control
# T14 construct: purchased DiscoverX
# Experimental: as §1
# PLK4 = target: T15, PLK4 (Homo sapiens, UniProt O00444); assay: Kinase selectivity assay (DiscoverX KinomeScreen), PLK4; type: binding; details: PLK4, 5 μM; read-out: % Control
# T15 construct: purchased DiscoverX
# T15 sequence (O00444 whole entry): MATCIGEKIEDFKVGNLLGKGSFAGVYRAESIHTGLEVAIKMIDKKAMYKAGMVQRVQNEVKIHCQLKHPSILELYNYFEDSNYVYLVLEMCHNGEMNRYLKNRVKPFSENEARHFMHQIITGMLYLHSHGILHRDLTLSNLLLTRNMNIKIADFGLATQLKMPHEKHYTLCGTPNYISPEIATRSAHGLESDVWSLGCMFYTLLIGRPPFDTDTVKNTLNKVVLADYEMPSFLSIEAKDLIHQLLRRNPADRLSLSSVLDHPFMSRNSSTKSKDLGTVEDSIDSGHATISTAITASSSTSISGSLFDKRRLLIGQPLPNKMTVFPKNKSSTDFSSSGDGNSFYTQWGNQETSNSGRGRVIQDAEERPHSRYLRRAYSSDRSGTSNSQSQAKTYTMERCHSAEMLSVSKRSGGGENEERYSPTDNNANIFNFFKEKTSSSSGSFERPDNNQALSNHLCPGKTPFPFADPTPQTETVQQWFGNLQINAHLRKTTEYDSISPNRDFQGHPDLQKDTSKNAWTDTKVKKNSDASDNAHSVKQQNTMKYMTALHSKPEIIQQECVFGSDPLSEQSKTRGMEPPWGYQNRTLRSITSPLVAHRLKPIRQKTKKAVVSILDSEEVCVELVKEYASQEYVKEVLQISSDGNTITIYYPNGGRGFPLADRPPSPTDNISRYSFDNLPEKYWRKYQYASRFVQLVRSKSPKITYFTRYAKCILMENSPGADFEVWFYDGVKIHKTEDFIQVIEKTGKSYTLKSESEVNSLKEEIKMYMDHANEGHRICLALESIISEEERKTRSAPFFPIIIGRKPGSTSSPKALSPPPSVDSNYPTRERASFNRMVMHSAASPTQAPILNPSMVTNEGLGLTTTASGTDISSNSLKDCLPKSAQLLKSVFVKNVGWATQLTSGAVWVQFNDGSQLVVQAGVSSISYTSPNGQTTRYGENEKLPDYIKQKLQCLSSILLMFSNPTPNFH
# Experimental: as §1
# [3] = Determination of oral bioavailability (plasma pharmacokinetics i.v. and p.o.); type: in vivo, Male CD-1 mice; details: mice
# Experimental: Determination of Oral Bioavailability The oral bioavailability of the compound of Example 33 was determined in mice and compared with the bioavailability following intravenous injection using the following protocol. […] N=3 mice per time point with 15 ul plasma per aliquot.
# TLK1 = target: T16, TLK1 (Homo sapiens, UniProt Q9UKI8); assay: Kinase selectivity assay (DiscoverX KinomeScreen), TLK1; type: binding; details: TLK1, 5 μM; read-out: % Control
# T16 construct: purchased DiscoverX
# Experimental: as §1
# BUB1 = target: T17, BUB1 (Homo sapiens, UniProt O43683); assay: Kinase selectivity assay (DiscoverX KinomeScreen), BUB1; type: binding; details: BUB1, 5 μM; read-out: % Control
# T17 construct: purchased DiscoverX
# Experimental: as §1
# PLK2 = target: T18, PLK2 (Homo sapiens, UniProt Q9NYY3); assay: Kinase selectivity assay (DiscoverX KinomeScreen), PLK2; type: binding; details: PLK2, 5 μM; read-out: % Control
# T18 construct: purchased DiscoverX
# T18 sequence (Q9NYY3 whole entry): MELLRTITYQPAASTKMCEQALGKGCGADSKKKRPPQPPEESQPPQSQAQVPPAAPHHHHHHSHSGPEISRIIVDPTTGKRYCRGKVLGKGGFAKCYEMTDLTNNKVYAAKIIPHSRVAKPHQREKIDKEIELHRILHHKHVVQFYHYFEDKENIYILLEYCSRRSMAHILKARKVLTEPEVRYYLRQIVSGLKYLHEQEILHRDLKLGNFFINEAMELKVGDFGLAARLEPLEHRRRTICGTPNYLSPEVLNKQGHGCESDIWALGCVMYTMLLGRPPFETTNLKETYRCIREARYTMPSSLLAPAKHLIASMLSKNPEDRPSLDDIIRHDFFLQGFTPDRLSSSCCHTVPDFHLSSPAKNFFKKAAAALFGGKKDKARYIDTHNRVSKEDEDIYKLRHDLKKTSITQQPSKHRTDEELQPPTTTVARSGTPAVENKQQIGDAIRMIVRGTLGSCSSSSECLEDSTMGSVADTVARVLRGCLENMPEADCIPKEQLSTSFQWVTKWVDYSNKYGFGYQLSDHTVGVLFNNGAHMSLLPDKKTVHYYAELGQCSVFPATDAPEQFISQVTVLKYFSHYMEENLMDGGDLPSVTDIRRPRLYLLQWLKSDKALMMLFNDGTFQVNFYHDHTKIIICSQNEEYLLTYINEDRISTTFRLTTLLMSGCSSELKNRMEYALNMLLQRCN
# Experimental: as §1
# AURKA = target: T19, AURKA (Homo sapiens, UniProt O14965); assay: Kinase selectivity assay (DiscoverX KinomeScreen), AURKA; type: binding; details: read-out: % Control
# T19 construct: purchased DiscoverX
# T19 sequence (O14965 whole entry): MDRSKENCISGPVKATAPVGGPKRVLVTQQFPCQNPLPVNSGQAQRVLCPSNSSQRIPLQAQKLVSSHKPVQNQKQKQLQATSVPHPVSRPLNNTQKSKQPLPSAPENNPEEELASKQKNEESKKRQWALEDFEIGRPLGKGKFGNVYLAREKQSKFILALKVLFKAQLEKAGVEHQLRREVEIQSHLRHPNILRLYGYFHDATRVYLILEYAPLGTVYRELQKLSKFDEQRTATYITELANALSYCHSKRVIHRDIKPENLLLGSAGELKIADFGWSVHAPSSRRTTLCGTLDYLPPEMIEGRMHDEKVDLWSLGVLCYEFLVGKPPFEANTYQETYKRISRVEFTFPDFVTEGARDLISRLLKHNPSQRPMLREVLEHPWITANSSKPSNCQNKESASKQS
# Experimental: as §1
# EIF2AK2 = target: T20, EIF2AK2 (Homo sapiens, UniProt P19525); assay: Kinase selectivity assay (DiscoverX KinomeScreen), EIF2AK2; type: binding; details: EIF2AK2, 5 μM; read-out: % Control
# T20 construct: purchased DiscoverX
# T20 sequence (P19525 whole entry): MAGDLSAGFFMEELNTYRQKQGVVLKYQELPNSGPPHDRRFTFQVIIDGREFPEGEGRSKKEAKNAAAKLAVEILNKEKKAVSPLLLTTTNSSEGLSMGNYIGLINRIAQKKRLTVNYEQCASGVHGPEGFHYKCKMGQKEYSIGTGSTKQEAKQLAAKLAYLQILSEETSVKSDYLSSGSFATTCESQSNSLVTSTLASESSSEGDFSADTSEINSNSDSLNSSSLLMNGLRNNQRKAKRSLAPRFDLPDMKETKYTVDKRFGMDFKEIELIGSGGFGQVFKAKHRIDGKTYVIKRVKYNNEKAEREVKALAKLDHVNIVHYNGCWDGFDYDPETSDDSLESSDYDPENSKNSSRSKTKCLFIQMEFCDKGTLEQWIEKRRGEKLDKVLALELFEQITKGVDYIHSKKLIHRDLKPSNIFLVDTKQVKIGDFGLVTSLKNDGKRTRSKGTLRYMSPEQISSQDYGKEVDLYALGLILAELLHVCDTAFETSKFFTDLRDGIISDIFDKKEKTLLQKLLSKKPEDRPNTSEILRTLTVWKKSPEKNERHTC
# Experimental: as §1
# [4] = system: glioblastoma cell line 905984; assay: Glioblastoma cancer cell viability, cell line 905984; type: cell-based
# Experimental: as §2, §3
# hERG ion channel = hERG ion channel (Homo sapiens, UniProt Q12809); assay: Binding to the hERG ion channel
# [5] = system: glioblastoma cell line 909750; assay: Glioblastoma cancer cell viability, cell line 909750; type: cell-based
# Experimental: as §2, §3
# [6] = male, CD-1, mouse, 2 mg/kg IV, plasma
# [7] = male, CD-1, mouse, 10 mg/Kg PO, plasma
# T1 sequence (O75716 whole entry): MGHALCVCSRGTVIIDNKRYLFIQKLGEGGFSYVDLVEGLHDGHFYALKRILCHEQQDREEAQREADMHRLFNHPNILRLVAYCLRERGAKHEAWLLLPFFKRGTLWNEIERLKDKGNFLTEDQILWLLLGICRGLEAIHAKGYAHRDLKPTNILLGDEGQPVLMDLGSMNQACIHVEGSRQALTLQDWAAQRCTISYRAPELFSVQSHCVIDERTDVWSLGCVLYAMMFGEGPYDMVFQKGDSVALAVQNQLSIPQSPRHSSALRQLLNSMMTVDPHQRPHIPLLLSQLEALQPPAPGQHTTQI
compound,measurement,setting,value
"CN(C)CCNC(=O)c1ccc(-c2ccc(-c3ccc(Cl)cc3)n2-c2ccccc2C(F)(F)F)cc1 [Example 33, 4-[5-(4-chlorophenyl)-1-[2-(trifluoromethyl)phenyl]pyrrol-2-yl]-N-[2-(dimethylamino)ethyl]benzamide Hydrochloride]",remaining activity at 5 µM,STK16,92%
same,remaining activity at 5 µM,DSTYK,75%
same,phospho-histone H3 in tumours (Western blotting),phospho-histone H3,clear induction of phospho-histone H3
same,GI50,wild-type HeLa cell line,20 nM
same,IC50,[1],2060 nM
same,remaining activity at 5 µM,AAK1,100%
same,remaining activity at 5 µM,AURKB,95%
same,remaining activity at 5 µM,TTK,83%
same,remaining activity at 5 µM,CAMKK2,97%
same,remaining activity at 5 µM,NEK11,100%
same,remaining activity at 5 µM,STK35,71%
same,IC50,[2],430 nM
same,remaining activity at 5 µM,WNK2,100%
same,remaining activity at 5 µM,WNK4,91%
same,remaining activity at 5 µM,ULK1,84%
same,remaining activity at 5 µM,IKBKB,100%
same,remaining activity at 5 µM,TLK2,94%
same,remaining activity at 5 µM,WNK1,97%
same,remaining activity at 5 µM,PLK4,90%
same,AUC(0-inf),[3]; [6],2100 ng·h/mL
same,Cmax,[3]; [6],873 ng/mL
same,half-life,"[3]; male, CD-1, mouse, 2 mg/kg IV, plasma, read-out: T½ (converted)",13 h
same,Vd,"[3]; male, CD-1, mouse, 2 mg/kg IV, plasma, read-out: Vss",17 L/kg
same,AUC(0-inf),[3]; [7],9800 ng·h/mL
same,Cmax,[3]; [7],415 ng/mL
same,CI,"[3]; 2 mg/kg IV, plasma",16 mL/min/kg
same,F,[3]; 10 mg/Kg PO versus 2 mg/kg IV,93%
same,T½,"[3]; 10 mg/Kg PO, plasma",15 h
same,Vz,"[3]; 10 mg/Kg PO, plasma",23 L/kg
same,remaining activity at 5 µM,TLK1,99%
same,remaining activity at 5 µM,BUB1,90%
same,remaining activity at 5 µM,PLK2,85%
same,remaining activity at 5 µM,AURKA,83%
same,remaining activity at 5 µM,EIF2AK2,90%
same,IC50,[4],241 nM
same,binding to the hERG ion channel,hERG ion channel,> 25 µM
same,IC50,[5],929 nM
